tested on: Nilaparvata lugens; experiment: Nilaparvata lugens seedling dip test (paddy seedlings, third instar nymphs); format: in vivo; conditions: dead and moribund third instar nymphs 72 h after release, compared to untreated controls, read-out: percent mortality
Method: The seedling dip method was used for testing, wherein the required quantity of the compound was weighed and dissolved in a tube containing a solvent solution. The tube was put on a vortex at 2000 rpm for proper mixing and then diluted with a 0.01% Triton-X solution to the desired test concentration. Paddy seedlings were dipped in the compound solution for 10 seconds, shade dried for 20 min and then the seedlings were placed in glass test tubes with the roots kept in water. 15 third instar nymphs of Nilaparvata lugens were released into each test tube and the tubes were kept in a plant growth chamber at a temperature of 25° C. and relative humidity of 75%. Observations on dead, moribund and alive nymphs were recorded 72 h after the release. Percent mortality was calculated by combining dead and moribund nymphs and comparing the result to the one of the untreated controls. The compounds

SMILES	mortality at 300 ppm
CC(C)S(=O)(=NC(=O)C(F)(F)F)c1ccc2nn(-c3cncnc3)cc2c1 (stereo not drawn) [Compound 417]	≥ 70%
CCOc1nn(-c2cccc3nn(-c4cccnc4)cc23)c(=O)n1Cc1ccc(F)cc1 [Compound 343, 5-ethoxy-4-(4-fluorobenzyl)-2-(2-(pyridin-3-yl)-2H-indazol-4-yl)-2,4-dihydro-3H-1,2,4-triazol-3-one]	≥ 70%
N=S(=O)(CC1CC1)c1ccc2nn(-c3cccnc3)c(Cl)c2c1 (stereo not drawn) [Compound 454, (3-chloro-2-(pyridin-3-yl)-2H-indazol-5-yl)(cyclopropylmethyl)(imino)-λ^6-sulfanone]	≥ 70%
CCCCS(=O)(CC)=Nc1ccc2nn(-c3cncc(F)c3)c(Cl)c2c1 (stereo not drawn) [Compound 194]	≥ 70%
CCS(=O)(=NC(=O)c1ccc2nn(-c3cccnc3)cc2c1)C(C)C (stereo not drawn) [Compound 105, N-(ethyl(isopropyl)(oxo)-λ^6-sulfaneylidene)-2-(pyridin-3-yl)-2H-indazole-5-carboxamide]	≥ 70%
COc1nn(-c2cccc3nn(-c4cccnc4)cc23)c(=O)n1C [Compound 125, 5-methoxy-4-methyl-2-(2-(pyridin-3-yl)-2H-indazol-4-yl)-2,4-dihydro-3H-1,2,4-triazol-3-one]	≥ 70%

tested on: Bemisia tabaci; experiment: Bemisia tabaci leaf dip test (brinjal leaves, whitefly adults); format: in vivo; conditions: foliar, dead and moribund whitefly adults 72 h after release, compared to untreated controls, read-out: percent mortality
Method: The leaf dip method was used for testing, wherein the required quantity of the compound was weighed and dissolved in a tube containing a solvent solution. The tube was put on a vortex at 2000 rpm for proper mixing and then diluted with a 0.01% Triton-X solution to the desired test concentration. Brinjal leaves were dipped in the compound solution for 10 seconds; shade dried for 20 min and then placed, with the abaxial side of the leaf up, on 4 ml of a solidified 1% agar-agar solution in respective container caps. Known numbers of freshly emerged whitefly adults were collected, using a modified aspirator, and released into a perforated container in which the cap containing the treated leaf was placed. The containers were kept in a plant growth chamber at a temperature of 25° C. and relative humidity of 70%. Observations on dead, moribund and alive adults were recorded 72 h after the release. Percent mortality was calculated by combining dead and moribund adults and comparing the result to the one of the untreated controls. The compounds 1 9 11 18 25 28 29 30 31

SMILES	mortality at 300 ppm
COc1nn(-c2ccc3nn(-c4cccnc4)cc3c2)c(=O)n1Cc1ccccc1F [Compound 122, 4-(2-fluorobenzyl)-5-methoxy-2-(2-(pyridin-3-yl)-2H-indazol-5-yl)-2,4-dihydro-3H-1,2,4-triazol-3-one]	≥ 70%
CC(C)S(=O)(CCC(F)(F)F)=Nc1ccc2nn(-c3cncnc3)cc2c1 (stereo not drawn) [Compound 101, isopropyl((2-(pyrimidin-5-yl)-2H-indazol-5-yl)imino)(3,3,3-trifluoropropyl)-λ^6-sulfanone]	≥ 70%
CS(=O)(=Nc1ccc2nn(-c3cncnc3)cc2n1)C1CCCCC1 (stereo not drawn) [Compound 223]	≥ 70%
CC(C)S(=O)(=NC(=O)C(F)F)c1ccc2nn(-c3cncnc3)cc2c1 (stereo not drawn) [Compound 421]	≥ 70%
CCS(C)(=O)=Nc1ccc(F)c2nn(-c3cccnc3)cc12 (stereo not drawn) [Compound 109]	≥ 70%
CC(=O)N=S(=O)(c1ccc2nn(-c3cncnc3)cc2c1)C(C)C (stereo not drawn) [Compound 418]	≥ 70%
CC(C)S(=O)(=Nc1ccc2nn(-c3cncnc3)cc2c1)c1ccc(F)cc1 (stereo not drawn) [Compound 18]	≥ 70%
CC(C)S(=O)(CC1CCC1)=Nc1ccc2nn(-c3cccnc3)cc2n1 (stereo not drawn) [Compound 289]	≥ 70%
COc1nn(-c2ccc3nn(-c4ccc(C)nc4C)cc3c2)c(=O)n1C [Compound 116, 2-(2-(2,6-dimethylpyridin-3-yl)-2H-indazol-5-yl)-5-methoxy-4-methyl-2,4-dihydro-3H-1,2,4-triazol-3-one]	≥ 70%
CS(C)(=O)=NC(=O)c1ccc2nn(-c3cncnc3)cc2c1 [Compound 228, N-(dimethyl(oxo)-λ^6-sulfaneylidene)-2-(pyrimidin-5-yl)-2H-indazole-5-carboxamide]	≥ 70%
CC(C)CS(=O)(CC(C)C)=Nc1ccc2nn(-c3cccnc3)cc2c1 [Compound 79]	≥ 70%
CCS(=O)(=Nc1ccc(F)c2nn(-c3cccnc3)cc12)C(C)C (stereo not drawn) [Compound 108]	≥ 70%
CCCCS(=O)(CC)=Nc1ccc2nn(-c3cncnc3)cc2n1 (stereo not drawn) [Compound 220]	≥ 70%
N=S(=O)(CCC(F)(F)F)c1ccc2nn(-c3cccnc3)cc2c1 (stereo not drawn) [Compound 580, imino(2-(pyridin-3-yl)-2H-indazol-5-yl)(3,3,3-trifluoropropyl)-λ^6-sulfanone]	≥ 70%
CCS(=O)(CC)=Nc1ccc2nn(-c3cncc(F)c3)cc2n1 [Compound 308]	≥ 70%
CC(C)S(C)(=O)=Nc1ccc2nn(-c3cncc(F)c3)cc2n1 (stereo not drawn) [Compound 311]	≥ 70%
O=S(CCC(F)(F)F)(=Nc1ccc2nn(-c3cncc(F)c3)cc2c1)c1ccccc1 (stereo not drawn) [Compound 65]	≥ 70%
CC(C)(C)S(C)(=O)=Nc1ccc2nn(-c3cncc(F)c3)cc2n1 (stereo not drawn) [Compound 313]	≥ 70%
CCS(=O)(CC)=Nc1ccc2nn(-c3ccnnc3)cc2c1 [Compound 43]	≥ 70%
CC(C)S(C)(=O)=Nc1ccc2nn(-c3cncnc3)cc2n1 (stereo not drawn) [Compound 213]	≥ 70%
CC(C)CCS(=O)(=Nc1ccc2nn(-c3cncnc3)cc2c1)C(C)C (stereo not drawn) [Compound 294]	≥ 70%
CCN(C)S(=O)(=Nc1ccc2nn(-c3cncnc3)cc2c1)C1CC1 (stereo not drawn) [Compound 135, N-ethyl-N-methyl-N′-(2-(pyrimidin-5-yl)-2H-indazol-5-yl)cyclopropanesulfonimidamide]	≥ 70%
CCS(=O)(=Nc1ccc2nn(-c3cncnc3)cc2n1)C(C)C (stereo not drawn) [Compound 241]	≥ 70%
CCCS(=O)(CCC)=Nc1cccc2nn(-c3cncc(F)c3)cc12 [Compound 77]	≥ 70%
CCCS(=O)(CCC)=Nc1ccc2nn(-c3cncc(F)c3)cc2n1 [Compound 310]	≥ 70%
N=S(=O)(c1ccc2nn(-c3cccnc3)cc2c1)C1CCC1 (stereo not drawn) [Compound 554, cyclobutyl(imino)(2-(pyridin-3-yl)-2H-indazol-5-yl)-λ^6-sulfanone]	≥ 70%

SMILES	mortality at 300 ppm
CCS(C)(=O)=Nc1ccc2nn(-c3cncc(F)c3)cc2n1 (stereo not drawn) [Compound 307]	≥ 70%
COc1nn(-c2ccc3nn(-c4cccnc4)cc3c2)c(=O)n1Cc1ccc(Cl)c(Cl)c1 [Compound 368, 4-(3,4-dichlorobenzyl)-5-methoxy-2-(2-(pyridin-3-yl)-2H-indazol-5-yl)-2,4-dihydro-3H-1,2,4-triazol-3-one]	≥ 70%
CCS(=O)(CC)=Nc1ccc2nn(-c3cncnc3)cc2n1 [Compound 219]	≥ 70%
O=S(CCC(F)(F)F)(=Nc1ccc2nn(-c3ccnnc3)cc2c1)c1ccccc1 (stereo not drawn) [Compound 68]	≥ 70%
COc1nn(-c2ccc3nn(-c4cccnc4)cc3c2)c(=O)n1Cc1ccc(Cl)cc1Cl [Compound 369, 4-(2,4-dichlorobenzyl)-5-methoxy-2-(2-(pyridin-3-yl)-2H-indazol-5-yl)-2,4-dihydro-3H-1,2,4-triazol-3-one]	≥ 70%
N=S(=O)(CCC1CCCCC1)c1ccc2nn(-c3cccnc3)cc2c1 (stereo not drawn) [Compound 561, (2-cyclohexylethyl)(imino)(2-(pyridin-3-yl)-2H-indazol-5-yl)-λ^6-sulfanone]	≥ 70%
CCS(=O)(=Nc1ccc2nn(-c3ccnnc3)cc2c1)C(C)C (stereo not drawn) [Compound 48]	≥ 70%
CC(=O)N=S(=O)(CC1CCC1)c1ccc2nn(-c3cncnc3)cc2c1 (stereo not drawn) [Compound 467]	≥ 70%
CCS(=O)(=Nc1ccc2nn(-c3cncnc3)cc2c1)c1ccccc1 (stereo not drawn) [Compound 34]	≥ 70%
CCS(=O)(CC)=Nc1cc(C(F)(F)F)c2nn(-c3cccnc3)cc2c1 [Compound 296]	≥ 70%
CCN=S(=O)(CC1CCC1)c1ccc2nn(-c3cncnc3)cc2c1 (stereo not drawn) [Compound 466]	≥ 70%
N=S(=O)(CC1CCC1)c1ccc2nn(-c3cncnc3)cc2c1 (stereo not drawn) [Compound 465, (cyclobutylmethyl)(imino)(2-(pyrimidin-5-yl)-2H-indazol-5-yl)-λ^6-sulfanone]	≥ 70%
CC(C)S(=N)(=O)c1ccc2nn(-c3cncnc3)cc2c1 (stereo not drawn) [Compound 410, imino(isopropyl)(2-(pyrimidin-5-yl)-2H-indazol-5-yl)-λ^6-sulfanone]	≥ 70%
CCS(=O)(CC)=NC(=O)c1ccc2nn(-c3cncnc3)cc2c1 [Compound 231, N-(diethyl(oxo)-λ^6-sulfaneylidene)-2-(pyrimidin-5-yl)-2H-indazole-5-carboxamide]	≥ 70%
CCCS(=O)(CCC)=Nc1cnc2nn(-c3cncnc3)cc2c1 [Compound 184]	≥ 70%
CN=S(=O)(c1ccc2nn(-c3cccnc3)cc2c1)C(C)C (stereo not drawn) [Compound 408]	≥ 70%
CCCS(=O)(CCC)=Nc1cc2cn(-c3cncnc3)nc2cn1 [Compound 278]	≥ 70%
CCCCS(=O)(CC)=Nc1ccc2nn(-c3cccnc3)cc2n1 (stereo not drawn) [Compound 214]	≥ 70%
CC(C)CS(=O)(CC(C)C)=Nc1ccc2nn(-c3cncnc3)cc2n1 [Compound 221]	≥ 70%
CCS(=O)(=Nc1cncc(C(F)(F)F)n1)c1ccc2nn(-c3cncc(F)c3)cc2c1 (stereo not drawn) [Compound 463]	≥ 70%
CC(C)(C)S(C)(=O)=Nc1ccc2nn(-c3cncc(F)c3)cc2c1 (stereo not drawn) [Compound 293]	≥ 70%
CC(C)S(C)(=O)=Nc1cccc2nn(-c3cccnc3)cc12 (stereo not drawn) [Compound 74]	≥ 70%
CC(C)S(=O)(=Nc1ccc2nn(-c3cncnc3)cc2c1)C(C)C [Compound 31]	≥ 70%
COc1ccc(S(=O)(CCC(F)(F)F)=Nc2ccc3nn(-c4cncc(F)c4)cc3c2)cc1 (stereo not drawn) [Compound 66]	≥ 70%
CCCS(C)(=O)=Nc1ccc2nn(-c3cncc(F)c3)cc2n1 (stereo not drawn) [Compound 309]	≥ 70%

Reference: patent US20250282754A1, “BICYCLIC COMPOUNDS AND THEIR USE AS PEST CONTROL AGENTS” (Pl Industries Ltd., priority 2022, published 2025)
